Patent US5952328A, “Benzothiazo and related heterocyclic group-containing cysteine and serine protease inhibitors” (Cephalon, Inc., priority 1997, dated 1999)

What follows are compounds tested against T1, Calpain I (Homo sapiens, UniProt P07384) (assay: Inhibition of calpain I activity (Succ-Leu-Tyr-MNA substrate hydrolysis, fluorescence)). Details: Example 187, in text; bisulfite addition compound; read-out: IC50 (calpain).
T1 construct: made in house
T1 sequence (P07384 1-714): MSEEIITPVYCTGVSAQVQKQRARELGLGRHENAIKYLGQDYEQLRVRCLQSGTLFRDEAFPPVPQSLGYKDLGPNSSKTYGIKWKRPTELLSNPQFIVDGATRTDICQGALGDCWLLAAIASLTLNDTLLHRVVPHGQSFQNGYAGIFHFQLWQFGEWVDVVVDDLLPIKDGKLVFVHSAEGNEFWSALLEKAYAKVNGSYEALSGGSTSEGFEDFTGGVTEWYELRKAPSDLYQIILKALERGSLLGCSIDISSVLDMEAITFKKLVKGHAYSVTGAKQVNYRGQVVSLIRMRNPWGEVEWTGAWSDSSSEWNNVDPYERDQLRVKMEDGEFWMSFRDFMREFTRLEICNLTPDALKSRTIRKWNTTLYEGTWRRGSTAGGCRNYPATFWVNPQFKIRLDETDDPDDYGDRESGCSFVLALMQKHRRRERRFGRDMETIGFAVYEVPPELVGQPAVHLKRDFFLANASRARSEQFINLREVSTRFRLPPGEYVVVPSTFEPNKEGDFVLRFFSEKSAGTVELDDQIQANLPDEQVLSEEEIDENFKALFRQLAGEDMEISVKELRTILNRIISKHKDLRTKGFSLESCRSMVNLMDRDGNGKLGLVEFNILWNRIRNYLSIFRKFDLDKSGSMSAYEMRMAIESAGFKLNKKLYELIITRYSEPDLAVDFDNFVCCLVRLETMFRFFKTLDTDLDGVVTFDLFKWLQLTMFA
T1 sequence (P04632 1-268 partner): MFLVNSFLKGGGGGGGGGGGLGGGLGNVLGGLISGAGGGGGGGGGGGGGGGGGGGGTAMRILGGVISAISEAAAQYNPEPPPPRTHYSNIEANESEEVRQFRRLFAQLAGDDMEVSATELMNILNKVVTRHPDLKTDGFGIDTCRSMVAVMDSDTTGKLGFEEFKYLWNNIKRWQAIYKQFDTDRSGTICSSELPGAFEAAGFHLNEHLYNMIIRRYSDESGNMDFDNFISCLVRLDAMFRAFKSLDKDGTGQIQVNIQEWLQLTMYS
Format: biochemical
Experimental: To evaluate inhibitory activity, stock solutions (40 times concentrated) of each compound to be tested were prepared in 100% anhydrous DMSO and […] of each inhibitor preparation were aliquoted into each of three wells of a 96-well plate. Calpain I, prepared by a modification of the method of W. J. Lee et al. (Biochem. […] To start the reaction, […] of 50 mM CaCl2 in assay buffer was added to each of the wells of the plate, excepting three, which were used as background signal baseline controls. Substrate hydrolysis was monitored every 5 minutes for a total of 30 minutes using a Fluoroskan II fluorescence plate reader. […] Inhibition of calpain I activity was calculated as the percent decrease in the rate of substrate hydrolysis in the presence of inhibitor relative to the rate in its absence. Comparison between the inhibited and control rates was made within the linear range for substrate hydrolysis. For screening, compounds were tested at […]. […] The results were plotted as percent inhibition versus log inhibitor concentration, and the IC50 was calculated from linear regression of the data.
Compound `CCN1C(C(=O)N[C@@H](Cc2ccccc2)C(O)S(=O)(=O)O)Cc2cc3c(cc2S1(=O)=O)OCCO3` (stereo partly drawn) [Example 187, N-(3,4-Dihydro-6,7-ethylenedioxy-2-ethyl-2H-1,2-benzothiazine-3-carbonyl)-L-phenylalaninal 1,1-dioxide, bisulfite addition compound] has an IC50 of 8 nM.

Same assay, conditions: Table II; calpain I, 0.2 mM Succ-Leu-Tyr-MNA, pH 7.5; * mixture of diastereomers, a,b single diastereomers; read-out: IC50
`CN1C(C(=O)N[C@H](C=O)Cc2ccccc2)Cc2cc(N3CCOCC3)ccc2S1(=O)=O` (stereo partly drawn) [Cpd 12z, N-(3,4-Dihydro-6-(4-morpholino)-2-methyl-2H-1,2-benzothiazine-3-carbonyl)-L-phenylalaninal 1,1-dioxide] showed an IC50 of ~500 nM.
For `COc1cc2c(cc1OC)S(=O)(=O)NC(C(=O)N[C@H](C=O)Cc1ccccc1)C2` (single isomer, unassigned) [Cpd 12c, N-(3,4-Dihydro-6,7-dimethoxy-2H-1,2-benzothiazine-3-carbonyl)-L-phenylalaninal 1,1-dioxide], the IC50 was ~800 nM.
`CN1C(C(=O)N[C@H](C=O)Cc2ccccc2)Cc2ccccc2S1(=O)=O` (stereo partly drawn) [Cpd 12j, N-(3,4-Dihydro-2-methyl-2H-1,2-benzothiazine-3-carbonyl)-L-phenylalaninal 1,1-dioxide] showed an IC50 of 110 nM.
`CC(C)CN1C(C(=O)N[C@H](C=O)Cc2ccccc2)Cc2cc(Cl)ccc2S1(=O)=O` (stereo partly drawn) [Cpd 12n, N-(3,4-Dihydro-6-chloro-2-isobutyl-2H-1,2-benzothiazine-3-carbonyl)-L-phenylalaninal 1,1-dioxide] gave an IC50 of ~200 nM.
`CN1C(C(=O)N[C@H](C=O)Cc2ccccc2)Cc2cc(Cl)ccc2S1(=O)=O` (stereo partly drawn) [Cpd 12q, N-(6-Chloro-3,4-dihydro-2-methyl-2H-1,2-benzothiazine-3-carbonyl)-L-phenylalaninal 1,1-dioxide] gave an IC50 of 15 nM.
`CC(C)N1C(C(=O)N[C@H](C=O)Cc2ccccc2)Cc2cc3c(cc2S1(=O)=O)OCCO3` (stereo partly drawn) [Cpd 12u, N-(3,4-Dihydro-6,7-ethylenedioxy-2-isopropyl-2H-1,2-benzothiazine-3-carbonyl)-L-phenylalaninal 1,1-dioxide] was tested, and the IC50 was 30 nM.
Compound `COc1cc2c(cc1OC)S(=O)(=O)NC(C(=O)N[C@H](C=O)Cc1ccccc1)C2` (single isomer, unassigned) [Cpd 12d, N-(3,4-Dihydro-6,7-dimethoxy-2H-1,2-benzothiazine-3-carbonyl)-L-phenylalaninal 1,1-dioxide] has an IC50 of ~700 nM.
`CN1C(C(=O)N[C@H](C=O)CCCCNS(=O)(=O)c2ccccc2)Cc2cc3c(cc2S1(=O)=O)OCCO3` (stereo partly drawn) [Cpd 12x, Nα -(3,4-Dihydro-6,7-ethylenedioxy-2-methyl-2H-1,2-benzothiazine-3-carbonyl)-L-Nε -(benzenesulfonyl)lysinal 1,1-dioxide] gave an IC50 of 36 nM.
`CN1C(C(=O)N[C@H](C=O)Cc2ccccc2)Cc2cc(Cl)ccc2S1(=O)=O` (stereo partly drawn) [Cpd 12p, N-(6-Chloro-3,4-dihydro-2-methyl-2H-1,2-benzothiazine-3-carbonyl)-L-phenylalaninal 1,1-dioxide] showed an IC50 of 5 nM.

Same assay, conditions: Table III; calpain I, 0.2 mM Succ-Leu-Tyr-MNA, pH 7.5; * mixture of diastereomers, a,b single diastereomers; read-out: IC50
`CCN1C(C(=O)N[C@@H](Cc2ccccc2)C(=O)C(=O)NCCCNS(=O)(=O)c2ccc(Cl)c(Cl)c2)Cc2cc3c(cc2S1(=O)=O)OCCO3` (stereo partly drawn) [Cpd 14W, 3-((3,4-Dihydro-6,7-ethylenedioxy-2-ethyl-2H-1,2-benzothiazine-3-carbonyl)amino)-3-(S)-benzyl-2-oxo-N-(3-(3,4-dichlorobenzenesulfonylamino)propyl)propanamide 1,1-dioxide] gave an IC50 of 56 nM.
With `CCN1C(C(=O)N[C@@H](Cc2ccccc2)C(=O)C(=O)NCCNS(=O)(=O)c2ccc(Cl)c(Cl)c2)Cc2cc3c(cc2S1(=O)=O)OCCO3` (stereo partly drawn) [Cpd 14V, 3-((3,4-Dihydro-6,7-ethylenedioxy-2-ethyl-2H-1,2-benzothiazine-3-carbonyl)amino)-3-(S)-benzyl-2-oxo-N-(2-(3,4-dichlorobenzenesulfonylamino)ethyl)propanamide 1,1-dioxide] the IC50 was 56 nM.
Compound `CCN1C(C(=O)N[C@@H](Cc2ccccc2)C(=O)C(=O)NCCNS(=O)(=O)c2ccccc2)Cc2cc3c(cc2S1(=O)=O)OCCO3` (stereo partly drawn) [Cpd 14X, 3-((3,4-Dihydro-6,7-ethylenedioxy-2-ethyl-2H-1,2-benzothiazine-3-carbonyl)amino)-3-(S)-benzyl-2-oxo-N-(2-(benzenesulfonylamino)ethyl)propanamide 1,1-dioxide] has an IC50 of 40 nM.
With `CCN1C(C(=O)N[C@@H](Cc2ccccc2)C(=O)C(=O)NCCCNS(=O)(=O)c2ccc([N+](=O)[O-])cc2)Cc2cc3c(cc2S1(=O)=O)OCCO3` (stereo partly drawn) [Cpd 14U, 3-((3,4-Dihydro-6,7-ethylenedioxy-2-ethyl-2H-1,2-benzothiazine-3-carbonyl)amino)-3-(S)-benzyl-2-oxo-N-(3-(4-nitrobenzenesulfonylamino)propyl)propanamide 1,1-dioxide] the IC50 was 50 nM.
For `CCN1C(C(=O)N[C@@H](Cc2ccccc2)C(=O)C(=O)NCCNS(=O)(=O)c2ccc(F)cc2)Cc2cc3c(cc2S1(=O)=O)OCCO3` (stereo partly drawn) [Cpd 14AC, 3-((3,4-Dihydro-6,7-ethylenedioxy-2-ethyl-2H-1,2-benzothiazine-3-carbonyl)amino)-3-(S)-benzyl-2-oxo-N-(2-(4-fluorobenzenesulfonylamino)ethyl)propanamide 1,1-dioxide], the IC50 was 29 nM.
In the case of `CCN1C(C(=O)N[C@@H](Cc2ccccc2)C(=O)C(=O)NCCNS(=O)(=O)c2ccc(-c3ccccn3)s2)Cc2cc3c(cc2S1(=O)=O)OCCO3` (stereo partly drawn) [Cpd 14Y], the IC50 is reported as 20 nM.

Same assay, conditions: Table IV; calpain I, 0.2 mM Succ-Leu-Tyr-MNA, pH 7.5; read-out: IC50
`CN1C(C(=O)N[C@H](C=O)Cc2ccccc2)=Cc2cc3c(cc2S1(=O)=O)OCCO3` [Cpd 26b, N-(6,7-Ethylenedioxy-2-methyl-2H-1,2-benzothiazine-3-carbonyl)-L-phenylalaninal 1,1-dioxide] showed an IC50 of 6 nM.
`CCCCNC(=O)C(=O)[C@H](Cc1ccccc1)NC(=O)C1=Cc2cc3c(cc2S(=O)(=O)N1CC)OCCO3` [Cpd 27f] showed an IC50 of 155 nM.

Same assay, conditions: Table V; calpain I, 0.2 mM Succ-Leu-Tyr-MNA, pH 7.5; * mixture of diastereomers, a,b single diastereomers; read-out: IC50
`CCN1C(C(=O)N[C@H](C=O)Cc2ccccc2)N(Cc2ccccc2)c2ccccc2S1(=O)=O` (single isomer, unassigned) [Cpd 35d, N-(3,4-Dihydro-2-ethyl-4-benzyl-2H-1,2,4-benzothiadiazine-3-carbonyl)-L-phenylalaninal 1,1-dioxide] gave an IC50 of ~1000 nM.
In the case of `CCCN1c2ccccc2S(=O)(=O)N(CC)C1C(=O)N[C@H](C=O)Cc1ccccc1` (single isomer, unassigned) [Cpd 35b, N-(3,4-Dihydro-2-ethyl-4-propyl-2H-1,2,4-benzothiadiazine-3-carbonyl)-L-phenylalaninal 1,1-dioxide], the IC50 is reported as ~3000 nM.
`CCCN1c2ccccc2S(=O)(=O)N(CC)C1C(=O)N[C@H](C=O)Cc1ccccc1` (single isomer, unassigned) [Cpd 35a, N-(3,4-Dihydro-2-ethyl-4-propyl-2H-1,2,4-benzothiadiazine-3-carbonyl)-L-phenylalaninal 1,1-dioxide] gave an IC50 of ~1000 nM.
`CCCCNC(=O)C(=O)[C@H](Cc1ccccc1)NC(=O)C1Nc2ccccc2S(=O)(=O)N1C` (stereo partly drawn) [Cpd 35e, 3-((3,4-Dihydro-4H-2-methyl-2H-1,2,4-benzothiadiazine-3-carbonyl)amino)-3-(S)-benzyl-2-oxo-N-butylpropanamide 1,1-dioxide] was tested, and the IC50 was ~2000 nM.

Same assay, conditions: Table VI; calpain I, 0.2 mM Succ-Leu-Tyr-MNA, pH 7.5; read-out: IC50
`CCCCNC(=O)C(=O)[C@H](Cc1ccccc1)NC(=O)C1=Nc2ccccc2S(=O)(=O)N1` [Cpd 42c, 3-((2H-1,2,4-Benzothiadiazine-3-carbonyl)amino)-3-(S)-benzyl-2-oxo-N-butylpropanamide 1,1-dioxide] showed an IC50 of ~5000 nM.

Same assay, conditions: Table VII; calpain I, 0.2 mM Succ-Leu-Tyr-MNA, pH 7.5; a,b single diastereomers; read-out: IC50
`O=C[C@H](Cc1ccccc1)NC(=O)C1Cc2ccccc2C(=O)N1` (single isomer, unassigned) [Cpd 50a, N-(1-Oxo-1,2,3,4-tetrahydroisoquinoline-3-carbonyl)-L-phenylalaninal] was tested, and the IC50 was ~5000 nM.
